Measured values as given in PubChem BioAssay (NCI).
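Each compound was tested at five concentrations against cells in 96-well plates for 48 hours. TGI: total growth inhibition.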

Key:
Assay in all cases: growth of human tumour cells (NCI), 48 h
[1] = test system: SK-MEL-2 melanoma
[2] = test system: SR leukemia
[3] = test system: SW-620 colon
[4] = test system: HT29 colon
[5] = test system: A549 NSCLC
[6] = test system: CCRF-CEM leukemia
[7] = test system: CAKI-1 renal
[8] = test system: TK-10 renal
[9] = test system: HCC-2998 colon
[10] = test system: SK-MEL-5 melanoma

SMILES | TGI [1] | TGI [2] | TGI [3] | TGI [4] | TGI [5] | TGI [6] | TGI [7] | TGI [8] | TGI [9] | TGI [10]
c1ccc(C2=C(c3ccccc3)P(c3ccccc3)C2)cc1 (stereo unspecified) | > 100 µM | > 100 µM | > 100 µM | > 100 µM | > 100 µM | > 100 µM | > 100 µM | > 100 µM | > 100 µM | 
COC(=O)c1ccccc1CC(Cc1ccccc1)C(=O)OC (stereo unspecified) | > 100 µM | > 100 µM | > 100 µM | > 100 µM | > 100 µM | > 100 µM | > 100 µM | > 100 µM | > 100 µM | 54.8 µM
Clc1ncnc2c1ncn2CCCCCCCCCCCCn1cnc2c(Cl)ncnc21 | 26.4 µM | 3.82 µM | 60.8 µM | 21.5 µM | 26.4 µM | > 100 µM | 7.68 µM | 54.1 µM | 19.5 µM | 17.5 µM
CCC(C)C1(O)OC2CC3(C)OC(=CC3=O)/C(C)=C\C3OC(=O)C1(C)C32 (stereo unspecified) | 96.5 µM | 73.5 µM |  | 34.3 µM | > 100 µM | > 100 µM | 31.5 µM | 54.2 µM | 30.1 µM | 23.1 µM
CCS(=O)(=O)c1c2cc(OC)ccc2nc2ccc(OC)cc12 | > 100 µM | > 100 µM | > 100 µM | > 100 µM | > 100 µM | > 100 µM | > 100 µM | > 100 µM | > 100 µM | 
COc1cc(C(SCc2ccccc2)SCc2ccccc2)ccc1O | > 10 µM | > 10 µM | > 10 µM | > 10 µM |  | > 10 µM | > 10 µM | > 10 µM | > 10 µM | > 10 µM
Cc1ccc2nc(Cl)c(/C=N/N3C(=O)/C(=C/c4ccc(N(C)C)cc4)N=C3c3ccccc3)cc2c1 | 98.7 µM | > 100 µM | > 100 µM | > 100 µM | > 100 µM | > 100 µM | > 100 µM | > 100 µM | > 100 µM | > 100 µM
Cc1c(F)c(N)c2c(=O)cc(-c3ccc(NC(=O)C(N)CCCN=C(N)N)c(F)c3)oc2c1F (stereo unspecified) | 60 µM | > 100 µM | > 100 µM | > 100 µM | > 100 µM | > 100 µM | 3.32 µM | 30.5 µM | > 100 µM | 76.8 µM
O=C1C(N=Nc2ccc(-c3nc4ccccc4[nH]3)cc2)NC(=S)N1c1ccccc1 (stereo unspecified) | > 100 µM | 15.3 µM | 80.1 µM | > 100 µM | > 100 µM | 56 µM | > 100 µM | > 100 µM | 41.7 µM | > 100 µM
